In patent US8093240B2, “Triazole derivatives” (Merck Patent GmbH, priority 2005, dated 2012) one finds IC50 data, which are given here for 13 compounds.

This experiment deals with TGF-beta. In words: Elimination of TGF-beta-mediated growth inhibition in Mv1Lu cells (Crystal Violet staining). Format: cell-based. The conditions noted are these: 48 h; lung epithelial cell line Mv1Lu, 1 ng/ml TGF-beta, 0.5% FCS, two days. The protocol: In-Vitro (Enzyme) Assay for Determination of the Efficacy of Inhibitors of the Inhibition of TGF-Beta-Mediated Effects
As an example, the ability of the inhibitors to eliminate TGF-beta-mediated growth inhibition is tested.
Cells of the lung epithelial cell line Mv1Lu are sown in a defined cell density in a 96-well microtitre plate and cultivated overnight under standard conditions. Next day, the medium is replaced by medium which comprises 0.5% of FCS and 1 ng/ml of TGF-beta, and the test sub-stances are added in defined concentrations, generally in the form of dilution series with 5-fold steps. The concentration of the solvent DMSO is constant at 0.5%. After a further two days, Crystal Violet staining of the cells is carried out. After extraction of the Crystal Violet from the fixed cells, the absorption is measured spectrophotometrically at 550 nm. It can be used as a quantitative measure of the adherent cells present and thus of the cell proliferation during the culture.
The term IC50 denotes the midpoint of a concentration-inhibition curve. In turn, `Cc1cccc(-c2nnc3n2-c2ccc(O)cc2NCC3C)n1` (racemic) [Compound A1, (R,S)-8-hydroxy-4-methyl-1-(6-methylpyridin-2-yl)-5,6-dihydro-4H-2,3,6,10btetraazabenzo[e]azulene] came in with a half-inhibitory concentration (IC50) of 0.18 µM. Turning to `CC1CNc2cc(O)ccc2-n2c(-c3cccc(Cl)c3)nnc21` (racemic) [Compound A2, (R,S)-1-(3-Chlorophenyl)-4-methyl-5,6-dihydro-4H-2,3,6,10b-tetraazabenzo[e]azulen-8-ol], half-maximal inhibition (IC50) required 0.97 µM. In turn, `Cc1cccc(-c2nnc3n2-c2ccc(Cl)cc2NCC3C)n1` (racemic) [Compound A3, (R,S)-8-Chloro-4-methyl-1-(6-methylpyridin-2-yl)-5,6-dihydro-4H-2,3,6,10b-tetraazabenzo[e]azulene] showed an IC50 of 3.5 µM. The compound `COc1ccc2c(c1)NCC(C)c1nnc(-c3cccc(C)n3)n1-2` (racemic) [Compound A5, (R,S)-8-Methoxy-4-methyl-1-(6-methylpyridin-2-yl)-5,6-dihydro-4H-2,3,6,10b-tetraazabenzo[e]azulene] returned a half-maximal inhibitory concentration (IC50) of 2.4 µM. As to `COc1cccc(-c2nnc3n2-c2ccc(OC)cc2NCC3C)c1` (racemic) [Compound A6, (R,S)-8-Methoxy-1-(3-methoxyphenyl)-4-methyl-5,6-dihydro-4H-2,3,6,10b-tetraazabenzo[e]azulene], the IC50 is 3.9 µM. Compared with the last compound, the IC50 is about 1.6-fold higher.

In turn, `COc1ccc2c(c1)NCC(C)c1nnc(-c3cc(Cl)ccc3F)n1-2` (racemic) [Compound A8, (R,S)-1-(5-Chloro-2-fluorophenyl)-8-methoxy-4-methyl-5,6-dihydro-4H-2,3,6,10b-tetraazabenzo[e]azulene] showed a half-maximal inhibitory concentration (IC50) of 6.6 µM. This IC50 is about 1.7-fold higher than that of the compound before.

Compound `CC1CNc2cc(O)ccc2-n2c(-c3cc(Cl)ccc3F)nnc21` (racemic) [Compound A9, (R,S)-1-(5-Chloro-2-fluorophenyl)-4-methyl-5,6-dihydro-4H-2,3,6,10b-tetraazabenzo[e]azulene-8-ol] yielded a 50% inhibitory concentration (IC50) of 0.91 µM. `CCOc1cccc(-c2nnc3n2-c2ccc(Cl)cc2NCC3C)c1` (racemic) [Compound A10, (R,S)-8-Chloro-1-(3-ethoxyphenyl)-4-methyl-5,6-dihydro-4H-2,3,6,10b-tetraazabenzo[e]azulene] came in with an IC50 of 5.7 µM. For `COc1cccc(-c2nnc3n2-c2ccc(Cl)cc2NCC3C)c1` (racemic) [Compound B1, (R,S)-8-Chloro-1-(3-methoxyphenyl)-4-methyl-5,6-dihydro-4H-2,3,6,10b-tetraazabenzo[e]azulene] the value was 7 µM. `Cc1cccc(-c2nnc3n2-c2ccc(Cl)cc2NC[C@@H]3C)n1` [Compound A4, (+)-(S)-8-Chloro-4-methyl-1-(6-methylpyridin-2-yl)-5,6-dihydro-4H-2,3,6,10b-tetraazabenzo[e]azulene] yielded an IC50 of 3.8 µM. To `Cc1cccc(-c2nnc3n2-c2ccc(O)cc2NCC3)n1` [Compound A7, 1-(6-Methylpyridin-2-yl)-5,6-dihydro-4H-2,3,6,10b-tetraazabenzo[e]azulen-8-ol] belongs 2.2 µM. `Cc1cccc(-c2nnc3n2-c2ccc(O)cc2NC(C)C3)n1` (stereo not shown) [Compound A78, 5-Methyl-1-(6-methylpyridin-2-yl)-5,6-dihydro-4H-2,3,6,10b-tetraazabenzo[e]azulen-8-ol] registered an IC50 of 0.15 µM. Compared with the last compound, the IC50 is about 15-fold lower. `Cc1cccc(-c2nnc3n2-c2cc(NC(=O)C(C)(C)C)ccc2NCC3C)n1` (stereo not shown) [Compound A80, 2,2-Dimethyl-N-[4-methyl-1-(6-methylpyridin-2-yl)-5,6-dihydro-4H-2,3,6,10b-tetraazabenzo[e]azulen-9-yl]propionamide] came in with an IC50 of 3.3 µM.
